Experimental data taken from paper PMC2946983 (Bioorganic & medicinal chemistry, 2010).

Experiments:
[1] = system: human serotonin 5-HT2C receptor; settings: isolated natural product; cited from earlier work
[2] = biological target: cloned human serotonin 5-HT2A receptor (Homo sapiens, UniProt P28223); assay: radioligand binding; settings: for Binding Affinity (Ki nM) 5-HT2A±SEM: n = 3, ND = not detected at highest concentration tested
[3] = biological target: T1, cloned human serotonin 5-HT1A receptor (Homo sapiens, UniProt P08908); assay: radioligand binding; settings: for affinity for 5-HT1A receptor: stated in words
T1 sequence (P08908 1-422): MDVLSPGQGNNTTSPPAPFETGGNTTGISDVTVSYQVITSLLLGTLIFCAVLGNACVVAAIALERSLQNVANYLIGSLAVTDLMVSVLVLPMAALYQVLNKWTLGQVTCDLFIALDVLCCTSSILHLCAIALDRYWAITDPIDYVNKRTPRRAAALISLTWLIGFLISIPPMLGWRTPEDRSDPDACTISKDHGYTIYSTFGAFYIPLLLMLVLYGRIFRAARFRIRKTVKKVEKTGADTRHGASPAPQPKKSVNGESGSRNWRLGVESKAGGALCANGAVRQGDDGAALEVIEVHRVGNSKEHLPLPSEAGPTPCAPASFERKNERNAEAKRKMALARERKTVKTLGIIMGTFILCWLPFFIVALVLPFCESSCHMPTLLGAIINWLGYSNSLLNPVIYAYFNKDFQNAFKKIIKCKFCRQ

[4] = biological target: T2, cloned human serotonin 5-HT2C receptor (Homo sapiens, UniProt P28335); assay: radioligand binding
T2 sequence (P28335 33-458): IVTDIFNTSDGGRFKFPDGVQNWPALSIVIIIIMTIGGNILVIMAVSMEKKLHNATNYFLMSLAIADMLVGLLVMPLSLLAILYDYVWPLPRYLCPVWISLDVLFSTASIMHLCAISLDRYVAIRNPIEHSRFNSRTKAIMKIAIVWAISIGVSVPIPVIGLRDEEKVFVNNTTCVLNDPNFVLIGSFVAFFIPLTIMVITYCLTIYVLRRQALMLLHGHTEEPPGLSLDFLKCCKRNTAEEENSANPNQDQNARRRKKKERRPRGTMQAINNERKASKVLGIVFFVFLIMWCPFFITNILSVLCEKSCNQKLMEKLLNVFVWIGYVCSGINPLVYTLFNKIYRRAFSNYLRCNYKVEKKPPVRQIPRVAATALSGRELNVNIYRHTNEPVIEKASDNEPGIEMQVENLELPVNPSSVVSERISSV

[5] = read-out: radioligand affinity KD ± S.D., saturation isotherm

cloned human serotonin 5-HT2A receptor, sequence (P28223 whole entry): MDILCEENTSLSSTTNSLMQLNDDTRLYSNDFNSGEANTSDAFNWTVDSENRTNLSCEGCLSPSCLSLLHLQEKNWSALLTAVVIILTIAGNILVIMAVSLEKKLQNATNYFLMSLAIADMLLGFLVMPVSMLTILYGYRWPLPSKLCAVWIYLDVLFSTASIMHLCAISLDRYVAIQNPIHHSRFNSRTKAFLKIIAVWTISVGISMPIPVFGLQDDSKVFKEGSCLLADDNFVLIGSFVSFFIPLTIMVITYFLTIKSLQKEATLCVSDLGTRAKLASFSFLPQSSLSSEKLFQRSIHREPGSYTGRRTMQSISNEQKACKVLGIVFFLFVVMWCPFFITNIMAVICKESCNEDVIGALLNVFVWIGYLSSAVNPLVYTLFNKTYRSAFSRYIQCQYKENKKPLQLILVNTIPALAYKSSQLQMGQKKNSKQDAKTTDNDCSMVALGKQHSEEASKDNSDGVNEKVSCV

| Binding Affinity (Ki nM) 5-HT2A±SEM [2] | affinity for 5-HT1A receptor [3] | SMILES | other results |
| --- | --- | --- | --- |
| – | – | CN1C(=N)NC(=Cc2c[nH]c3cc(Br)ccc23)C1=O [6-bromo-2′-de-N-methylaplysinopsin] | selectivity for 5-HT2C over 5-HT2A receptor [1]: > 40 fold |
| little or no apparent affinity | little or no apparent affinity | CN1C(=N)NC(=O)/C1=C\c1c[nH]c2cc(Cl)c(Cl)cc12 [Compound 4, (E)-2-amino-5-[(5,6-dichloro-1H-indol-3-yl)methylene]-1-methyl-1H-imidazol-4(5H)-one] | Binding Affinity (Ki nM) 5-HT2C±SEM ([4]; n = 3): little or no apparent affinity |
| lack of affinity | lack of affinity | CN1C(=N)N(C)/C(=C/c2c[nH]c3cc(Cl)ccc23)C1=O [Compound 14, (E)-5-[(6-chloro-1H-indol-3yl)methylene]-2-imino-1,3-dimethylimidazolidin-4-one] | – |
| no detectable affinity | no detectable affinity | CN1C(=N)N(C)/C(=C/c2c[nH]c3cc(Cl)c(Cl)cc23)C1=O [Compound 16, (E)-5-[(5,6-dichloro-1H-indol-3-yl)methylene]-2-imino-1,3-dimethylimidazolidin-4-one] | – |
| – | – | COc1ccccc1N1CCN(CCN(C(=O)c2ccc(F)cc2)c2ccccn2)CC1 [[^3H]MPPF, 4-(2′-Methoxy)-phenyl-1-[2′-(N-2″-pyridinyl)-p-fluorobenzamido]ethyl-piperazine, reference compound] | Kd [3, 5]: 0.267 ± 0.036 nM |
| – | – | CN1CN(c2ccccc2)C2(CCN(CCCC(=O)c3ccc(F)cc3)CC2)C1=O [[^3H]methylspiperone, N-Methyl-8-[4-(4-fluorophenyl)-4-oxobutyl]-1-phenyl-1,3,8-triazaspiro-[4.5]decan-4-one, reference compound] | Kd [2, 5]: 0.246 ± 0.042 nM |

| SMILES | Binding Affinity (Ki nM) 5-HT2A±SEM [2] | affinity for 5-HT1A receptor [3] | other results |
| --- | --- | --- | --- |
| CN1C(=N)N(C)/C(=C/c2c[nH]c3cc(Br)ccc23)C1=O [Compound 15, 5-(6-bromo-1H-indol-3-ylmethylene)-2-imino-1,3-dimethyl-imidazolidin-4-one] | not detectable | – | Ki Selectivity Ratio 5-HT2A/5-HT2C [4]: >45 |
